The values that follow come from patent US7645763B2, “8-[3-amino-piperidin-1-yl]-xanthines, their preparation and their use as pharmaceutical composition” (Boehringer Ingelheim Pharma GmbH & Co. KG, priority 2004, dated 2010).

The term IC50 denotes the concentration that inhibits the measured activity by half.

One series concerns the target T1, DPP-IV (Homo sapiens, UniProt P27487).
T1 construct: an extract of the human colon carcinoma cell line Caco-2 is used as the DPP IV source; endogenous in cells; host or cells: Caco-2 (human colon carcinoma), differentiated to induce DPP-IV expression; Nonidet-P40 solubilized extract
Description: DPP-IV assay with Caco-2 cell extract as DPP IV source. The series is classed as biochemical. The settings on record: extract of human colon carcinoma cell line Caco-2 as DPP IV source; AFC substrate 100 μM; 60 minutes at ambient temperature; 11-point curves; read-out: DPP IV inhibition IC50. The method, then:
The differentiation of the cells in order to induce the DPP-IV expression was carried out in accordance with the description by Reiher et al. in an article entitled “Increased expression of intestinal cell line Caco-2” that appeared in Proc. Natl. Acad. Sci. Vol. 90, pp. 5757-5761 (1993). The cell extract was obtained from cells solubilized in a buffer (10 mM Tris HCl, 0.15 M NaCl, 0.04 t.i.u. aprotinin, 0.5% Nonidet-P40, pH 8.0) by centrifugation at 35,000 g for 30 minutes at 4° C. (to remove cell debris).
The DPP-IV assay was carried out as follows:
50 μl of substrate solution (AFC; AFC is amido-4-trifluoromethylcoumarin), final concentration 100 μM, was placed in black microtitre plates. 20 μl of assay buffer (final concentrations 50 mM Tris HCl pH 7.8, 50 mM NaCl, 1% DMSO) was pipetted therein. The reaction was started by the addition of 30 μl of solubilized Caco-2 protein (final concentration 0.14 μg of protein per well). The test substances under investigation were typically added prediluted to 20 μl, while the volume of assay buffer was then reduced accordingly. The reaction was carried out at ambient temperature, the incubation period was 60 minutes. Then the fluorescence was measured in a Victor 1420 Multilabel Counter, with the excitation wavelength at 405 nm and the emission wavelength at 535 nm. Dummy values (corresponding to 0% activity) were obtained in mixtures with no Caco-2 protein (volume replaced by assay buffer), control values (corresponding to 100% activity) were obtained in mixtures without any added substance. The potency of the test substances in question, expressed as IC50 values, were calculated from dosage/activity curves consisting of 11 measured points in each case.

Series [1] can be described thus: Tolerability in rats after oral administration. The note with it: oral administration of 10 mg/kg. The format is in vivo.

Molecules are shown by their SMILES.

T1 sequence (P27487 whole entry): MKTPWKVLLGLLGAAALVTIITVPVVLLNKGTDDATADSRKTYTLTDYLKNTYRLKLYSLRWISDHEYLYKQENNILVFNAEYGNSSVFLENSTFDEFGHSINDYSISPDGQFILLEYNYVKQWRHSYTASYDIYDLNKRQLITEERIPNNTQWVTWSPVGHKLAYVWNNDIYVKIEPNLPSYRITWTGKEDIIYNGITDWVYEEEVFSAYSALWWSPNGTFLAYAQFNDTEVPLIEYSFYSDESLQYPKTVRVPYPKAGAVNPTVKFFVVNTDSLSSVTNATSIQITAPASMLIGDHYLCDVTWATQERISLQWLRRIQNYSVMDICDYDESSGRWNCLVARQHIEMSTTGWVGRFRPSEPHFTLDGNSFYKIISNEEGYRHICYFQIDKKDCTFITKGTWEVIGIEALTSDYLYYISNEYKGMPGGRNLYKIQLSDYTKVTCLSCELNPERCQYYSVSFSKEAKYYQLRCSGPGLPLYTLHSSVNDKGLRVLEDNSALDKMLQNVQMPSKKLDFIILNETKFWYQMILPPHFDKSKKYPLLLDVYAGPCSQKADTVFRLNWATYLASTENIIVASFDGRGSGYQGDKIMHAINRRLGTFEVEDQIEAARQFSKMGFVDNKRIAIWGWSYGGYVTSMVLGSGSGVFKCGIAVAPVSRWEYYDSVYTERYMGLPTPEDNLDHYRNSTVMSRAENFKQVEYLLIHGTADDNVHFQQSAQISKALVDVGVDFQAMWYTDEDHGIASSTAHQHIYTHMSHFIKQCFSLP

With `CC#CCn1c(N2CCC[C@@H](N)C2)nc2c1c(=O)n(Cc1nc(C)c3ccccc3n1)c(=O)n2C1CC1` [1(1), 1-[(4-methyl-quinazolin-2-yl)methyl]-3-cyclopropyl-7-(2-butyn-1-yl)-8-((R)-3-amino-piperidin-1-yl)-xanthine], the IC50 on DPP-IV came out at 2.7 nM. Consider `CC#CCn1c(N2CCC[C@@H](N)C2)nc2c1c(=O)n(CC(=O)c1cccc(OC)c1)c(=O)n2-c1ccccc1` [1(10), 1-[2-(3-methoxy-phenyl)-2-oxo-ethyl]-3-phenyl-7-(2-butyn-1-yl)-8-((R)-3-amino-piperidin-1-yl)-xanthine], for which the IC50 at DPP-IV was 8.1 nM.

On to `CC#CCn1c(N2CCC[C@@H](N)C2)nc2c1c(=O)n(Cc1ccc3ncccc3n1)c(=O)n2-c1ccccc1` [1(13), 1-[([1,5]naphthyridin-2-yl)methyl]-3-phenyl-7-(2-butyn-1-yl)-8-((R)-3-amino-piperidin-1-yl)-xanthine], for which the IC50 at DPP-IV was determined as 4 nM. In the case of `CC#CCn1c(N2CCC[C@@H](N)C2)nc2c1c(=O)n(Cc1nc(C)c3ccccc3n1)c(=O)n2-c1ccccc1` [Example 1(8), 1-[(4-methyl-quinazolin-2-yl)methyl]-3-phenyl-7-(2-butyn-1-yl)-8-((R)-3-amino-piperidin-1-yl)-xanthine], the IC50 on DPP-IV came out at 4.9 nM. Also, the “toxic side effects / tolerability” value in series [1] is “no toxic side effects could be detected”.

For `CC#CCn1c(N2CCC[C@@H](N)C2)nc2c1c(=O)n(CC(=O)c1cccc3oc(=O)n(C)c13)c(=O)n2C1CC1` [Example 1, 1-[2-(3-Methyl-2-oxo-2,3-dihydro-benzoxazol-4-yl)-2-oxo-ethyl]-3-cyclopropyl-7-(2-butyn-1-yl)-8-((R)-3-amino-piperidin-1-yl)-xanthine], the IC50 at DPP-IV worked out at 3.6 nM.
